This is an account of results in patent US8802866B2, “Pyridinylimidazolone derivatives for the inhibition of PI3 kinases” (Merck Patent GmbH, priority 2009, dated 2014).

In one series the target is DNA-PK protein complex (Homo sapiens, UniProt P78527). In words: Biochemical DNA-PK assay (FlashPlate). Put shortly: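 Streptavidin-coated FlashPlate radiometric kinase assay, stopped with 200 mM EDTA, then wells washed with 0.9% NaCl and bound radioactivity counted. Blank (non-specific reaction) defined with a proprietary kinase inhibitor at 10 μM.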
The target in a further series is PI3Kbeta (Homo sapiens, UniProt P42338). In words: Biochemical PI3Kbeta assay (neomycin SPA, lipid phosphorylation). The conditions noted are these: human recombinant GST-PI3K. The procedure, abridged:
(§1)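 Recombinant PI3K incubated with lipid substrate and radioactive ATP for 120 min at room temperature with gentle stirring, then stopped with neomycin-coated PVT-SPA beads, ATP 60 mM and EDTA 6.2 mM in PBS. After 60 min bead binding and centrifugation, radioactive Ptdlns(3)P counted by scintillation.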

A further series concerns the target PI3Kalpha (Homo sapiens, UniProt P42336). Kind of series: Biochemical PI3Kalpha assay (neomycin SPA, lipid phosphorylation). The conditions noted are these: human recombinant GST-PI3K. The procedure, abridged: as §1
Series [1] has as its system PI3K-dependent phosphorylation of PKB at Serin 473 in PC3 cells. In words: Cellular PI3K assay (P-S473-PKB Luminex assay in PC3 cells). In kind it is cell-based. The conditions noted are these: Homo sapiens, PC-3, 0.5 h; PC3 cells, 30 min, serum-free, P-S473-PKB; read-out: IC50 (cell). The procedure, abridged:
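PC3 cells were exposed for 30 min under serum-free conditions to 7 concentrations of compound, then lysed. Lysates were captured overnight at 4°C on anti-total-PKB Luminex beads and detected with P-S473-PKB antibody plus PE-labelled secondary.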

The target in series [2] is recombinant PI3Kalpha (shortened form of the catalytic subunit) (Homo sapiens, UniProt P42336). In words: BIACORE PI3K binding assay (SPR). The conditions noted are these: 25° C. The procedure, abridged:
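Contact time was 180 s and dissociation 240 s, in HEPES pH 7.40 buffer with 2% DMSO. Solvent-corrected, double-referenced data were fitted to a 1:1 model with mass transport.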
For orientation: Surface plasmon resonance follows binding to a sensor surface in real time, without labels.

A further series deals with T1, mTOR (Homo sapiens, UniProt P42345).
T1 construct: purchased Millipore 14-770
T1 sequence (P42345 1362-2549 limits assumed): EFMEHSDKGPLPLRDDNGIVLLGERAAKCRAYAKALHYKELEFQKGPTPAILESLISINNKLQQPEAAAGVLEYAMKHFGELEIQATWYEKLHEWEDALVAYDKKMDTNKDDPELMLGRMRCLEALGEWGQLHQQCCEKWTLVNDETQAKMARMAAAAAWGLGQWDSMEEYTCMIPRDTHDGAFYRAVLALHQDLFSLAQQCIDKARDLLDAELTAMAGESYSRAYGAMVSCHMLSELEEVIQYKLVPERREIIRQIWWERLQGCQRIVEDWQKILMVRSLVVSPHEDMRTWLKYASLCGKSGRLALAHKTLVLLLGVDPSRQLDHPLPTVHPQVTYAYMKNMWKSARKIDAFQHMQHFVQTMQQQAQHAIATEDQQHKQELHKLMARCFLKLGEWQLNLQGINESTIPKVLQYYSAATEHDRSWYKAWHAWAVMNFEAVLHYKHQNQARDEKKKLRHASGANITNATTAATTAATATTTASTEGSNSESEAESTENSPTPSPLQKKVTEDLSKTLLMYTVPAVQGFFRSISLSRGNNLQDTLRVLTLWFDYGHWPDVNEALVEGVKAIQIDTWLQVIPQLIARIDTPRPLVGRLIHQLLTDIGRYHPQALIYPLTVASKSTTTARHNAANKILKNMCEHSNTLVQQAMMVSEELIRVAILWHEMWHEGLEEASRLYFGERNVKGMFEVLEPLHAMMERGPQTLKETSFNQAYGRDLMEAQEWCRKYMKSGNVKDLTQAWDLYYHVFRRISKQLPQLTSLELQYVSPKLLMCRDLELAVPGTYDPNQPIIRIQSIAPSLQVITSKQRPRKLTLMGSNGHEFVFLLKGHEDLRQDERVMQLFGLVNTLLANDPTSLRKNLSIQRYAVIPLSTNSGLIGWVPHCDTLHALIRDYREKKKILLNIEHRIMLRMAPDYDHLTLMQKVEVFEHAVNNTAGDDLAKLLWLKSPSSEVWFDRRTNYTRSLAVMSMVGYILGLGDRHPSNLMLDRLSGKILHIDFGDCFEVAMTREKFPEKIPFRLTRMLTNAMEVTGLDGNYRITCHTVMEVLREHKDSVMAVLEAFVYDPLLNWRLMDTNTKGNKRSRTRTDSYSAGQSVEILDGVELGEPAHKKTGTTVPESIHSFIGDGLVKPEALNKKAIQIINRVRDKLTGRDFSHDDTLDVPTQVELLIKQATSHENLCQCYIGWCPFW
Kind of series: Biochemical mTOR assay (Millipore mTOR assay kit). As for the experimental part: The biochemical mTOR assay was carried out by the method described in the Millipore mTOR assay kit (catalogue number 14-770).

Chain of recombinant PI3Kalpha (shortened form of the catalytic subunit) (P42336 151-1068 limits assumed): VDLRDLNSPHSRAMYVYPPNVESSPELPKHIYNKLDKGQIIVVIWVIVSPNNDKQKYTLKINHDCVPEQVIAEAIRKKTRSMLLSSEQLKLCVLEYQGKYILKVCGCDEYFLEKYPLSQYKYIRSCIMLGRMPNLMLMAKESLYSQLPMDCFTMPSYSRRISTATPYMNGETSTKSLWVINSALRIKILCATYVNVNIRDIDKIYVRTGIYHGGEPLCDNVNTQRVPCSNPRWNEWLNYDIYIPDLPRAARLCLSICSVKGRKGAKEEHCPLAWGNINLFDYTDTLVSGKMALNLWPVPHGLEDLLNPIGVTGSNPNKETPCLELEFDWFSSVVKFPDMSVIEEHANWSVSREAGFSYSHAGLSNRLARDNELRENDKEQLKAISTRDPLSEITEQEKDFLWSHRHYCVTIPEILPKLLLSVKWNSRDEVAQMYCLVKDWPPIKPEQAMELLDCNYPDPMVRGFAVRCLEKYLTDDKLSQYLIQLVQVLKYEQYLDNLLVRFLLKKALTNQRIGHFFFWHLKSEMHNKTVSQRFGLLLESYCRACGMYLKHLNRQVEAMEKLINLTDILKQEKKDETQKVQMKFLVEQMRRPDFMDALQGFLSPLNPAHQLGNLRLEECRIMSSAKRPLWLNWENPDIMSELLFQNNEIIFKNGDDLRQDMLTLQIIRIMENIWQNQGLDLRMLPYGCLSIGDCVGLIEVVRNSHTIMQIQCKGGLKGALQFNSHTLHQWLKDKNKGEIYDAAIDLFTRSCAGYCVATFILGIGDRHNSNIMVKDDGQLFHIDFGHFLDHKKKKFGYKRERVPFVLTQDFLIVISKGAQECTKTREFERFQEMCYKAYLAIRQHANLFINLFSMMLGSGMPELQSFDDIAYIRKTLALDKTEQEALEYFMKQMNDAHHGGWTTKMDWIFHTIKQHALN
Chain of PI3Kbeta (P42338 whole entry): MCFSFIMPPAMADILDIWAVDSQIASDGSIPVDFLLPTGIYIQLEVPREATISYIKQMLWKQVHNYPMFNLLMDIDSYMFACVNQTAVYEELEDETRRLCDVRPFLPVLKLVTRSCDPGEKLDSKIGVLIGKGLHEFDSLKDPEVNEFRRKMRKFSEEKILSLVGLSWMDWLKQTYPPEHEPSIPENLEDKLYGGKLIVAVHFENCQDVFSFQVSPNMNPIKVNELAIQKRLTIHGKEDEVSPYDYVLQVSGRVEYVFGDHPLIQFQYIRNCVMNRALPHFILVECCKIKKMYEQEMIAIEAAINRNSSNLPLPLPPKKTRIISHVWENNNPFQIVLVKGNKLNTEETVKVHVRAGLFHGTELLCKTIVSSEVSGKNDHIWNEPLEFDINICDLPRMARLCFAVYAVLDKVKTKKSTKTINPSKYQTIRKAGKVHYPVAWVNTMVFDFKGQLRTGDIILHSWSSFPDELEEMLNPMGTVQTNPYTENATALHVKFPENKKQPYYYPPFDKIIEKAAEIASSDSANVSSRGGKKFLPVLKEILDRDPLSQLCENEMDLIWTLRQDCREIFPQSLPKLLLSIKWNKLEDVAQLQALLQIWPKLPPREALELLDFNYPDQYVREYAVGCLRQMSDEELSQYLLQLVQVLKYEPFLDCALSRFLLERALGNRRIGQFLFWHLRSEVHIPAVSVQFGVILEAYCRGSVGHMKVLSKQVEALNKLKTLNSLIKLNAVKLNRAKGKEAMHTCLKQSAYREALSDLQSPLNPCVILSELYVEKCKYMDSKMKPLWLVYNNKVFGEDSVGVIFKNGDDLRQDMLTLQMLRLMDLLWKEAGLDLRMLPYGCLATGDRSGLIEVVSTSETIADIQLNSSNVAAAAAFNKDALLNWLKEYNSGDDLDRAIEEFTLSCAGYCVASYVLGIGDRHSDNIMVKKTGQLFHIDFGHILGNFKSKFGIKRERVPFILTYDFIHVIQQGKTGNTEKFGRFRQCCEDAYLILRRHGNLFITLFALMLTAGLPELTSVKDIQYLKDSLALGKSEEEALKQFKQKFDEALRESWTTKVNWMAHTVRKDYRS
Chain of PI3Kbeta (P27986 whole entry partner): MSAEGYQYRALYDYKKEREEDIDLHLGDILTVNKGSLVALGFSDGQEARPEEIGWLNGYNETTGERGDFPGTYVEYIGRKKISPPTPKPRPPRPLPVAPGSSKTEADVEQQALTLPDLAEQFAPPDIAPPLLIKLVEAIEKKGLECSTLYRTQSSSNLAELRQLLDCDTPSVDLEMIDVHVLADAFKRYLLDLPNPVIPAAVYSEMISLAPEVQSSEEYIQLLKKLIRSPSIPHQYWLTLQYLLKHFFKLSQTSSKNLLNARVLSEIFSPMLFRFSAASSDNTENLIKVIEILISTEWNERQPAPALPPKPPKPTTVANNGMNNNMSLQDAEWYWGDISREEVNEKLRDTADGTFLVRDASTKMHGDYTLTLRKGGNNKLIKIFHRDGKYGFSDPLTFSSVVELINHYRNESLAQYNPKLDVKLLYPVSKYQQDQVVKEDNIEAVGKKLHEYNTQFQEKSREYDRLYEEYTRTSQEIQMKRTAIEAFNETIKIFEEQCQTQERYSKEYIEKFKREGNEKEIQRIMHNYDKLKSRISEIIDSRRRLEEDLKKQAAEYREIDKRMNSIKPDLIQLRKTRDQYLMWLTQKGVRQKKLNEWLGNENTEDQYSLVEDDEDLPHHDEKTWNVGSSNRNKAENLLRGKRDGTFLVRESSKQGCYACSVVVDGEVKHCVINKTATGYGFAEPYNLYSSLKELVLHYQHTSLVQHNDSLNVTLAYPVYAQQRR
Chain of PI3Kalpha (P42336 whole entry): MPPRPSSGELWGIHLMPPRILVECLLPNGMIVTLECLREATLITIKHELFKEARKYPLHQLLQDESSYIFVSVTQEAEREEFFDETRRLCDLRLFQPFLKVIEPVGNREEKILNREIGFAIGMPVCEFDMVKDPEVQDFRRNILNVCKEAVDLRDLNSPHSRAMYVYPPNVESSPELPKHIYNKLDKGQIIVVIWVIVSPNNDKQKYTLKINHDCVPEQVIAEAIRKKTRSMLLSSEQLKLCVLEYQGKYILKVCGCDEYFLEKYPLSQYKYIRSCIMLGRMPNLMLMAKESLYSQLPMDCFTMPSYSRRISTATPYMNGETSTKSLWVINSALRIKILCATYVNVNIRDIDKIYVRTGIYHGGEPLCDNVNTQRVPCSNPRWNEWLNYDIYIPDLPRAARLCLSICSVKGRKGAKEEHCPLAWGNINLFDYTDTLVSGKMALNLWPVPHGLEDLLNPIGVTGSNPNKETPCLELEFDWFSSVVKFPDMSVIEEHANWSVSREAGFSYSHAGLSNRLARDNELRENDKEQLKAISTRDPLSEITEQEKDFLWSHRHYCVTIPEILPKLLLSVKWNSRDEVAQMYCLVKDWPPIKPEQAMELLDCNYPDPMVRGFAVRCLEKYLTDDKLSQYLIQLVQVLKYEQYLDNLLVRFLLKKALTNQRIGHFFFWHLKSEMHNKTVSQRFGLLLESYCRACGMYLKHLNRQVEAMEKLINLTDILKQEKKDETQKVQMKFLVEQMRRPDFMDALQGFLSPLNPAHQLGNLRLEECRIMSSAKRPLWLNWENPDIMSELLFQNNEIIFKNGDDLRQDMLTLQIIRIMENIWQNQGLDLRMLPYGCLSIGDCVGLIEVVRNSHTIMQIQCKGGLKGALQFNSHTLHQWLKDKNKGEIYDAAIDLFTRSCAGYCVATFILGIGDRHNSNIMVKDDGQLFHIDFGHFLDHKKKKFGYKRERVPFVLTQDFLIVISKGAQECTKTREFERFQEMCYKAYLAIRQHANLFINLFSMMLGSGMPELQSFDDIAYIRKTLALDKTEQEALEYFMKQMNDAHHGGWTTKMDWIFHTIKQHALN
Chain of PI3Kalpha (P27986 whole entry partner): as the sequence (P27986 whole entry partner) above

As usually defined, the IC50 is the concentration that gives 50% inhibition. As a reminder, the melting point is the temperature of the solid-liquid transition. One may read the Kd as a measure of binding affinity in units of concentration. In turn, `O=c1[nH]cc(-c2cc(-c3cnc4ccccc4c3)ccn2)n1-c1ccc(N2CCNCC2)c(C(F)(F)F)c1` [Example A5, 1-(4-piperazin-1-yl-3-trifluoromethylphenyl)-5-(4-quinolin-3-ylpyridin-2-yl)-1,3-dihydroimidazol-2-one] yielded a melting point of 155 °C. Besides, the IC50 at DNA-PK protein complex lay within 0.1 to 10 µM. In addition, the 50% inhibitory concentration (IC50) at PI3Kbeta is 0.1 to 10 µM. Also, the half-maximal inhibitory concentration (IC50) at PI3Kalpha was 0.1 to 10 µM. The 50% inhibitory concentration (IC50) in series [1] fell in the range of 0.1 to 10 µM. Further, the Kd in series [2] was 0.1 to 10 µM.

In turn, `COc1cc(-c2ccnc(-c3cn(C)c(=O)n3-c3ccc(C(C)(C)C#N)cc3)c2)ccn1` [Example A6, 2-{4-[5-(2′-Methoxy-[4,4′]bipyridinyl-2-yl)-3-methyl-2-oxo-2,3-dihydroimidazol-1-yl]phenyl}-2-methylpropionitrile] came in with a melting point of 138 °C. Moreover, the half-maximal inhibitory concentration (IC50) on DNA-PK protein complex lay within 0.1 to 10 µM. Besides, the IC50 on PI3Kbeta was 0.1 to 10 µM. Further, the IC50 at PI3Kalpha lay in the range of 0.1 to 10 µM. In series [1], the half-maximal inhibitory concentration (IC50) was more than 10 µM. The Kd in series [2] was 0.1 to 10 µM.

`Cc1nc2cc(-c3ccnc(-c4cn(C)c(=O)n4-c4ccc(C(C)(C)C#N)cc4)c3)cnc2[nH]1` [Example A7, 2-Methyl-2-(4-{3-methyl-5-[4-(2-methyl-3H-imidazo[4,5-b]pyridin-6-yl)pyridin-2-yl]-2-oxo-2,3-dihydroimidazol-1-yl}phenyl)propionitrile] yielded a melting point of 288 °C. The half-inhibitory concentration (IC50) against DNA-PK protein complex lay in the range of 0.1 to 10 µM. Besides, the IC50 at PI3Kbeta was 0.1 to 10 µM. The IC50 at PI3Kalpha lay in the range of 0.0001 to 0.1 µM. The half-inhibitory concentration (IC50) in series [1] lay within 0.1 to 10 µM. Moreover, the dissociation constant Kd in series [2] was 0.0001 to 0.1 µM.

Molecule `Cn1cc(-c2cc(-c3ccc(N)nc3)ccn2)n(-c2ccc(C(C)(C)C#N)cc2)c1=O` [Example A8, 2-{4-[5-(6-Amino-[3,4′]bipyridinyl-2′-yl)-3-methyl-2-oxo-2,3-dihydroimidazol-1-yl]phenyl}-2-methylpropionitrile] returned a melting point of 252 °C. At DNA-PK protein complex, this molecule registered an IC50 of 0.1 to 10 µM. The IC50 at PI3Kbeta was 0.1 to 10 µM. The IC50 at PI3Kalpha lay in the range of 0.0001 to 0.1 µM. Also, in series [1], the IC50 fell in the range of 0.1 to 10 µM. In series [2], the Kd was 0.0001 to 0.1 µM.

Turning to `Cn1cc(-c2cc(-c3cccnc3)ccn2)n(-c2ccc(C(C)(C)C#N)cc2)c1=O` [Example A10, 2-[4-(5-[3,4′]Bipyridinyl-2′-yl-3-methyl-2-oxo-2,3-dihydroimidazol-1-yl)phenyl]-2-methylpropionitrile], the melting point worked out at 180 °C. This molecule also returned an IC50 on DNA-PK protein complex of 0.0001 to 0.1 µM. In addition, the IC50 on PI3Kbeta was in the range of 0.1 to 10 µM. Moreover, on PI3Kalpha, the IC50 was 0.1 to 10 µM. In addition, the IC50 in series [1] is more than 10 µM. Also, the equilibrium dissociation constant (Kd) in series [2] lay in the range of 0.1 to 10 µM.

The molecule `Cn1cc(-c2cc(-c3ccncc3)ccn2)n(-c2ccc(C(C)(C)C#N)cc2)c1=O` [Example A11, 2-[4-(5-[4,4′]Bipyridinyl-2-yl-3-methyl-2-oxo-2,3-dihydroimidazol-1-yl)phenyl]-2-methylpropionitrile] had a melting point of 226 °C. Also, at DNA-PK protein complex, the half-maximal inhibitory concentration (IC50) lay within 0.0001 to 0.1 µM. The IC50 on PI3Kbeta was more than 10 µM. Besides, on PI3Kalpha, the IC50 lay in the range of 0.1 to 10 µM. Also, the IC50 in series [1] was more than 10 µM.

In turn, `COc1ccc(-c2ccnc(-c3c[nH]c(=O)n3-c3ccc(C(C)(C)C#N)cc3)c2)cn1` [Example A15, 2-{4-[5-(6-Methoxy-[3,4′]bipyridinyl-2′-yl)-2-oxo-2,3-dihydroimidazol-1-yl]-10 phenyl}-2-methylpropionitrile] showed a melting point of 277 °C. For the same molecule, the IC50 against DNA-PK protein complex fell in the range of 0.1 to 10 µM. Further, the IC50 at PI3Kbeta fell in the range of 0.1 to 10 µM. Also, the half-maximal inhibitory concentration (IC50) on PI3Kalpha fell in the range of 0.1 to 10 µM. In addition, the IC50 in series [1] fell in the range of 0.1 to 10 µM. In series [2], the Kd was in the range of 0.1 to 10 µM.

Take `CC(C)(CN)c1ccc(-n2c(-c3cc(-c4cnc5ccccc5c4)ccn3)c[nH]c2=O)cc1` [Example A16, 1-[4-(2-Amino-1,1-dimethylethyl)phenyl]-5-(4-quinolin-3-ylpyridin-2-yl)-1,3-dihydroimidazol-2-one]: the melting point was in the range of 244 to 247 °C. On DNA-PK protein complex, the half-inhibitory concentration (IC50) lay within 0.1 to 10 µM. The IC50 on PI3Kbeta fell in the range of 0.1 to 10 µM. Further, the 50% inhibitory concentration (IC50) on PI3Kalpha was 0.1 to 10 µM. Moreover, the IC50 in series [1] was more than 10 µM. In series [2], the Kd lay within 0.1 to 10 µM.

Take `CC(C)(C#N)c1ccc(-n2c(-c3cc(-c4cnc5ccccc5c4)ccn3)c[nH]c2=O)cc1` [Example A17, 2-Methyl-2-{4-[2-oxo-5-(4-quinolin-3-ylpyridin-2-yl)-2,3-dihydroimidazol-1-yl]-phenyl}propionitrile]: the melting point is 271 °C. Moreover, the IC50 against DNA-PK protein complex was 0.1 to 10 µM. At PI3Kbeta, the IC50 lay in the range of 0.1 to 10 µM. Further, at PI3Kalpha, the concentration for half-maximal inhibition (IC50) was in the range of 0.1 to 10 µM. Besides, the IC50 in series [1] was 0.1 to 10 µM. Moreover, the Kd in series [2] lay within 0.1 to 10 µM.

The molecule `Cn1cc(-c2cc(-c3cnc4[nH]cc(C(F)(F)F)c4c3)ccn2)n(-c2ccc(C(C)(C)C#N)cc2)c1=O` [Example A18, 2-Methyl-2-(4-{3-methyl-2-oxo-5-[4-(3-trifluoromethyl-1H-pyrrolo[2,3-b]pyridin-5-yl)pyridin-2-yl]-2,3-dihydroimidazol-1-yl}phenyl)propionitrile] yielded a melting point of 159 °C. Also, the half-inhibitory concentration (IC50) on DNA-PK protein complex was in the range of 0.1 to 10 µM. For the same molecule, the IC50 on PI3Kbeta is 0.1 to 10 µM. The IC50 on PI3Kalpha lay in the range of 0.1 to 10 µM. Also, the half-maximal inhibitory concentration (IC50) in series [1] is 0.0001 to 0.1 µM. Also, in series [2], the dissociation constant (Kd) is 0.0001 to 0.1 µM.

Molecule `Cn1cc(-c2cc(-c3cnc4[nH]ccc4c3)ccn2)n(-c2ccc(N3CCNCC3)c(C(F)(F)F)c2)c1=O` [Example A25, 1-Methyl-3-(4-piperazin-1-yl-3-trifluoromethylphenyl)-4-[4-(1H-pyrrolo[2,3-b]-pyridin-5-yl)pyridin-2-yl]-1,3-dihydroimidazol-2-one] returned a melting point of 163 °C. In addition, on DNA-PK protein complex, the half-inhibitory concentration (IC50) lay in the range of 0.1 to 10 µM. Also, the half-maximal inhibitory concentration (IC50) at PI3Kbeta is 0.0001 to 0.1 µM. Further, on PI3Kalpha, the IC50 is 0.1 to 10 µM. Moreover, the IC50 in series [1] lay in the range of 0.1 to 10 µM. Also, the dissociation constant Kd in series [2] fell in the range of 0.0001 to 0.1 µM.

Molecule `Cn1cc(-c2cc(-c3cnc4ccccc4c3)ccn2)n(-c2ccc(C(C)(C)CN)cc2)c1=O` [Example A30, 3-[4-(2-Amino-1,1-dimethylethyl)phenyl]-1-methyl-4-(4-quinolin-3-ylpyridin-2-yl)-1,3-dihydroimidazol-2-one] returned a melting point of 132 °C. The molecule also had a 50% inhibitory concentration (IC50) against DNA-PK protein complex of 0.1 to 10 µM. In addition, the IC50 on PI3Kbeta was more than 10 µM. The 50% inhibitory concentration (IC50) on PI3Kalpha was in the range of 0.1 to 10 µM. Moreover, in series [1], the IC50 was more than 10 µM.

`Cn1cc(-c2cc(-c3cnc(N)c(C(F)(F)F)c3)ccn2)n(-c2ccc(C(C)(C)C#N)cc2)c1=O` [Example A40, 2-{4-[5-(6-Amino-5-trifluoromethyl-[3,4′]bipyridinyl-2′-yl)-3-methyl-2-oxo-2,3-dihydroimidazol-1-yl]phenyl}-2-methylpropionitrile] registered a melting point of 195 °C. At DNA-PK protein complex, this molecule showed a half-maximal inhibitory concentration (IC50) of 0.0001 to 0.1 µM. On PI3Kbeta, the IC50 fell in the range of 0.0001 to 0.1 µM. Moreover, on PI3Kalpha, the 50% inhibitory concentration (IC50) was 0.0001 to 0.1 µM. Moreover, in series [1], the half-maximal inhibitory concentration (IC50) fell in the range of 0.0001 to 0.1 µM. Besides, in series [2], the dissociation constant Kd was in the range of 0.0001 to 0.1 µM.

In turn, `Cn1cc(-c2cc(-c3cnc4c(c3)CCC(=O)N4)ccn2)n(-c2ccc(C(C)(C)C#N)cc2)c1=O` [Example A45, 2-Methyl-2-(4-{3-methyl-2-oxo-5-[4-(7-oxo-5,6,7,8-tetrahydro-[1,8]naphthyridin-3-yl)pyridin-2-yl]-2,3-dihydroimidazol-1-yl}phenyl)propionitrile] showed a melting point of 284 °C. Further, the concentration for half-maximal inhibition (IC50) at DNA-PK protein complex fell in the range of 0.0001 to 0.1 µM. In addition, the concentration for half-maximal inhibition (IC50) at PI3Kbeta lay in the range of 0.1 to 10 µM. Moreover, the half-maximal inhibitory concentration (IC50) on PI3Kalpha was 0.0001 to 0.1 µM. In addition, the IC50 in series [1] lay within 0.1 to 10 µM.

As to `Cn1cc(-c2cc(-c3ccc(N)c(C(F)(F)F)c3)ccn2)n(-c2ccc(C(C)(C)C#N)cc2)c1=O` [Example A93, 2-(4-{5-[4-(4-Amino-3-trifluoromethylphenyl)pyridin-2-yl]-3-methyl-2-oxo-2,3-dihydroimidazol-1-yl}phenyl)-2-methylpropionitrile], the IC50 was 0.0001 to 0.1 µM on DNA-PK protein complex; 0.1 to 10 µM against mTOR; 0.1 to 10 µM on PI3Kbeta; 0.1 to 10 µM on PI3Kalpha; 0.1 to 10 µM in series [1]. Besides, the Kd in series [2] lay in the range of 0.0001 to 0.1 µM.

For `Cn1cc(-c2cc(-c3cnc4[nH]ccc4c3)ccn2)n(-c2cc(F)cc(C#N)c2)c1=O` [Example A96, 3-Fluoro-5-{3-methyl-2-oxo-5-[4-(1H-pyrrolo[2,3-b]pyridin-5-yl)pyridin-2-yl]-2,3-dihydroimidazol-1-yl}benzonitrile], the IC50 was in the range of 0.0001 to 0.1 µM against DNA-PK protein complex; 0.1 to 10 µM on mTOR; 0.1 to 10 µM on PI3Kbeta; 0.1 to 10 µM on PI3Kalpha; 0.1 to 10 µM in series [1]. Moreover, the Kd in series [2] was in the range of 0.1 to 10 µM.

`Cn1cc(-c2cc(-c3cnc4[nH]cc(F)c4c3)ccn2)n(-c2ccc(F)c(C(F)(F)F)c2)c1=O` [Example A105, 4-[4-(3-Fluoro-1H-pyrrolo[2,3-b]pyridin-5-yl)pyridin-2-yl]-3-(4-fluoro-3-trifluoro-methylphenyl)-1-methyl-1,3-dihydroimidazol-2-one] displayed a melting point of 268 °C. Also, at DNA-PK protein complex, the concentration for half-maximal inhibition (IC50) was 0.1 to 10 µM. Also, the 50% inhibitory concentration (IC50) in series [1] was 0.1 to 10 µM.
